How the values were obtained:
[1] = tested on: histone acetylation in MCF7 breast cancer cells; assay: Activity Assay 4: histone acetylation by immunoblotting, MCF7; assay type: cell-based; settings: MCF7, 24 hours
Protocol: (§1) Method; Cardiac myocytes were prepared as described in Chembiochem. 2005 January; 6(1):162-70 and incubated with the indicated concentrations of compound 001 for 24 hours. MCF7 cells were incubated with the indicated concentrations of compound 001 for 24 hours. Expression of total histone H4 acetylation, or specific acetylation of Histone H4-K8 or Histone H3-K9 was analysed by Western blotting, as previously described (Brimmell et al. Br J Cancer. 1999 November; 81(6):1042-51) using antibodies from Upstate Biotech.
(§2) (A) MCF7 cells were incubated with compound 001 for 24 hours. Histone H4 acetylation was measured by immunoblotting. (B) Cardiac myocytes were incubated with indicated compound 001 for 24 hours. Histone H4 acetylation was measured by immunoblotting. (C) MCF7 cells were incubated with compound 001 for 24 hours. Histone H3-K9 and Histone H4-K8 acetylation was measured by immunoblotting

[2] = tested on: histone acetylation in cardiac myocytes; assay: Activity Assay 4: histone acetylation by immunoblotting, cardiac myocytes; assay type: cell-based; settings: 24 hours
Protocol: as §1, §2

MCF7 breast cancer cells = assay: Activity Assay 6: CyQuant cell growth inhibition, MCF7; assay type: cell-based; settings: Homo sapiens, 144 h, MCF7, 6 days
Protocol: (§3) We analysed the ability of compounds to inhibit the in vitro growth of human cancer cells. Cell proliferation assays were performed using the CyQuant™ assay system (Molecular Probes, Inc. USA) according to the manufacturer's instructions. MCF7 breast, A2780 ovarian and PC3 and LNCAP prostate cancer cells were plated in 96 well plates, at a density of 1000 cells for MCF7 cells or 5000 cells for M780/PC3/LNCAP cells, in 100 μl of cell culture medium per well. Compounds were added a minimum of 5 hours later, in serial dilutions in cell culture medium, in 100 μl volumes at 2× final concentration. Cell culture medium was removed after 4 (A2780, PC3 or LNCAP cells) or 6 days (MCF7 cells) by inversion of the plate onto blotting paper and cells were gently washed once with 200 μl PBS. Plates were frozen immediately for a minimum of one hour at −80° C. and then thawed. 200 μl of 1× CyQuant cell lysis buffer supplemented with dye, made according to the manufacturer's instruction, was added immediately to each well and incubated at room temperature for 3-5 minutes. Fluorescence was then measured for each well using a Cytofluor II Fluoresence Multiwell Plate Reader and CytoFluor II software with filters at 480 nm for excitation and 520 nm for emission maxima. Cell proliferation was determined for mean values of duplicate samples as percentages relative to untreated cell samples (=100%). Growth inhibition curves were used to derive IC50 values.

[3] = tested on: HDAC (Hela Nuclear Extract); assay: Activity Assay 5: in vitro HDAC fluorescent activity assay (Biomol kit); assay type: biochemical; settings: compounds reduced with DTT prior to analysis, 37° C., 1 hour, read-out: Inhibition of HDAC activity IC50
Protocol: We analysed the ability of compounds to inhibit in vitro HDAC activity. In vitro HDAC assays were performed using a HDAC fluorescent activity assay kit (Biomol, UK) according to the manufacturer's instructions. Compounds were reduced prior to analysis; 1 mM compound was reduced with 30 mM DTT in DMSO overnight at room temperature, protected from light. Reactions were then set up in a 96-well plate. […] Serial dilutions were set up for each compound. Reactions containing Hela extract only and assay buffer only were also set up. 25 μl diluted Fluor de Lys™ substrate (100-fold in assay buffer) was added to each reaction, which were then incubated at 37° C. for 1 hour. The reaction was stopped by addition of 50 μl Fluor de Lys™ Developer (20-fold dilution in assay buffer, plus TSA diluted 100-fold). […] Inhibition of in vitro HDAC activity was determined for mean values of duplicate samples as percentages relative to HeLa extract only reactions. IC50 values were calculated using GraphPad Prism software.

[4] = tested on: A2780 ovarian cancer cells; assay: Activity Assay 6: CyQuant cell growth inhibition, A2780; assay type: cell-based; settings: Homo sapiens, 96 h, A2780, 4 days
Protocol: as §3

MCF7 cells = assay: Activity Assay 3: cell cycle distribution and survival by propidium iodide flow cytometry; assay type: cell-based; settings: MCF7, ~10×IC50 for growth inhibition, 24, 48 or 72 hours
Protocol: Method; MCF7 cells were incubated with indicated concentrations of compounds, or left untreated as a control, for various times, as detailed in the figure legends. Cells were collected and the proportion of cells in different phases of the cell cycle determined using propidium iodide staining and flow cytometry as previously described (Purohit et al., Int J Ca 85, 584-9 2000). The proportion of cells with <G0/G1 content (pre G0) relative to total cells was calculated first. The proportion of cells in different cell cycle phases (G0/G1, S, G2/M) was calculated as a proportion of all cells in the cell cycle (i.e., total cells minus cells with <G0/G1 content).
MCF7 cells were incubated with the indicated concentrations of compounds (each equivalent to ˜10×IC50 values for growth inhibition), or DMSO as a solvent control, for 24, 48 or 72 hours. The proportion of cells in different phases of the cell cycle was determined by flow cytometry. Data shown are mean values ±SD, derived from two separate experiments, relative to untreated cells which are normalised to 1.

[5] = tested on: HDAC responsive SV40 promoter; assay: Activity Assay 2: SV40 promoter-luciferase reporter in MCF7 derived 2.1.1 cells; assay type: cell-based; settings: approx 16 hours
Protocol: Method. We generated a stable clone derived from MCF7 cells containing an integrated reporter construct with the SV40 immediate early promoter cloned upstream of the luciferase gene. MCF7 cells were transfected with pGL2-Basic (SV40/luciferase reporter) (Promega, UK) and pcDNA3 (expresses neomycin resistance gene) using Transfast transfection reagent. After 24 hours, cells were collected by trypsinisation and plated at low density. The following day, G418 was added to the growth medium. After ˜21 days, individual drug-resistant colonies were isolated and cultured. […] To test the effects of compound 001, 2.1.1 cells were incubated with various concentrations of compound 001 or an equivalent amount of DMSO as a control. The following day, cells were collected and luciferase activity detected using the Promega luciferase assay system and a TopCount (Perkin-Elmer).
MCF7 derived cells containing a stably integrated SV40 promoter-luciferase reporter plasmid were treated with the indicated concentrations of compound 001, or DMSO as a solvent control. Luciferase activity was determined after approx 16 hours. The data shown are derived from a single experiment performed in duplicate and are representative of multiple experiments.

[6] = tested on: inflammation in Balb/c mice; assay: Activity Assay 8: oxazolone-induced ear inflammation in mice; assay type: in vivo; settings: 24 hours; for Change in ear weight: Mean ± SD, 8 animals per group
Protocol: We analysed the ability of compound 9A (the compound of formula (2) on page 7) to inhibit inflammation in mice. Balb/c mice were sensitised by application of 5% (w/v) oxazolone to abdominal shaved skin. After 7 days mice were challenged by topical application of 3% (w/v) oxalazone to the left ear and acetone to the right ear. After 30 minutes test compounds dissolved in acetone were applied to the ears (dorsal and ventral surface).

[7] = tested on: LNCAP prostate cancer cells; assay: Activity Assay 6: CyQuant cell growth inhibition, LNCAP; assay type: cell-based; settings: Homo sapiens, 96 h, 4 days
Protocol: as §3

- IC50 (MCF7 breast cancer cells): 36.6 nM
- IC50 [3]: 9.9 nM
- IC50 [4]: 130 nM
- IC50 [7]: 252 nM
Compound: CC(C)[C@H]1NC(=O)[C@H]2CSSCC/C=C/[C@H](CC(=O)N[C@H](C)C(=O)N2)OC(=O)CNC1=O [Compound 9A, (E)-(1S,7R,10S,21R)-7-isopropyl-21-methyl-2-oxa-12,13-dithia-5,8,20,23-tetraaza-bicyclo[8.7.6]tricos-16-ene-3,6,9,19,22-pentaone]
- Histone H3-K9 and Histone H4-K8 acetylation, MCF7 cells [1]: specific Histone H3-K9 and Histone H4-K8 acetylation
- Histone H4 acetylation, MCF7 cells [1]: induces the accumulation of acetylated histone H4
- Histone H4 acetylation, cardiac myocytes [2]: induces the accumulation of acetylated histone H4
- cell cycle distribution and survival (MCF7 cells): induce a predominant G2/M phase arrest and cell death
- activity of the HDAC responsive SV40 promoter (luciferase activity) [5]: effectively reverses HDAC-mediated repression of the SV40 immediate early promoter
- % inhibition compared to vehicle ([6]; 0.1% topical in acetone): 33.3%
- Change in ear weight ([6]; 0.1% topical in acetone): 42.4 ± 4.3 mg
- % inhibition compared to vehicle ([6]; 1% topical in acetone): 63.0%
- Change in ear weight ([6]; 1% topical in acetone): 23.5 ± 3.2 mg

Reference: patent US7977304B2, “FK 228 derivates as HDAC inhibitors” (University of Southampton Highfield, priority 2005, dated 2011)
